Assay results taken from BigSolDB 2.1.

O=P(Oc1ccccc1)(Oc1ccccc1)Oc1ccc(OP(=O)(Oc2ccccc2)Oc2ccccc2)cc1
Conditions | solubility (mole fraction)
in acetone, 293.25 K | 0.0058
in acetone, 298.15 K | 0.00849
in acetone, 303.45 K | 0.0121
in acetone, 308.15 K | 0.0171
in acetone, 313.25 K | 0.0237
in acetone, 318.15 K | 0.0332
in acetone, 323.45 K | 0.0442
in acetonitrile, 293.25 K | 0.00142
in acetonitrile, 298.15 K | 0.00218
in acetonitrile, 303.25 K | 0.0034
in acetonitrile, 308.25 K | 0.00546
in acetonitrile, 313.25 K | 0.00807
in acetonitrile, 318.15 K | 0.0117
in acetonitrile, 323.25 K | 0.0173
in acetonitrile, 328.15 K | 0.0246
in acetonitrile, 333.25 K | 0.0357
in diethyl ether, 288.25 K | 0.00064
in diethyl ether, 293.25 K | 0.00081
in diethyl ether, 298.15 K | 0.00101
in diethyl ether, 303.25 K | 0.00127
in ethanol, 293.25 K | 0.00037
in ethanol, 298.15 K | 0.00062
in ethanol, 303.35 K | 0.00097
in ethanol, 308.25 K | 0.00156
in ethanol, 313.25 K | 0.00238
in ethanol, 318.25 K | 0.00356
in ethanol, 323.25 K | 0.00528
in ethanol, 328.15 K | 0.00807
in ethanol, 333.25 K | 0.0115
in ethyl acetate, 293.25 K | 0.00423
in ethyl acetate, 298.15 K | 0.00605
in ethyl acetate, 303.35 K | 0.00865
in ethyl acetate, 308.25 K | 0.0123
in ethyl acetate, 313.25 K | 0.0169
in ethyl acetate, 318.15 K | 0.0226
in ethyl acetate, 323.25 K | 0.0308
in ethyl acetate, 328.15 K | 0.0419
in ethyl acetate, 333.25 K | 0.0553
in isopropanol, 293.15 K | 0.00013
in isopropanol, 298.23 K | 0.00024
in isopropanol, 303.25 K | 0.00041
in isopropanol, 308.15 K | 0.00071
in isopropanol, 313.35 K | 0.00125
in isopropanol, 318.15 K | 0.00211
in isopropanol, 323.17 K | 0.00346
in isopropanol, 328.15 K | 0.00544
in isopropanol, 333.25 K | 0.00933
in methanol, 293.25 K | 0.00022
in methanol, 298.15 K | 0.0004
in methanol, 303.25 K | 0.00069
in methanol, 308.15 K | 0.00118
in methanol, 313.25 K | 0.00205
in methanol, 318.15 K | 0.0034
in methanol, 323.45 K | 0.00597
in methyl acetate, 293.25 K | 0.00522
in methyl acetate, 298.25 K | 0.00729
in methyl acetate, 303.25 K | 0.0106
in methyl acetate, 308.15 K | 0.0144
in methyl acetate, 313.15 K | 0.0203
in methyl acetate, 318.15 K | 0.0275
in methyl acetate, 323.45 K | 0.0369
in n-propanol, 293.15 K | 0.00025
in n-propanol, 298.17 K | 0.00046
in n-propanol, 303.25 K | 0.00078
in n-propanol, 308.15 K | 0.00127
in n-propanol, 313.24 K | 0.00215
in n-propanol, 318.18 K | 0.0035
in n-propanol, 323.25 K | 0.00558
in n-propanol, 328.15 K | 0.00884
in n-propanol, 333.24 K | 0.0136
in toluene, 293.15 K | 0.00378
in toluene, 298.25 K | 0.00543
in toluene, 303.35 K | 0.00795
in toluene, 308.15 K | 0.0114
in toluene, 313.25 K | 0.0154
in toluene, 318.18 K | 0.0219
in toluene, 323.25 K | 0.0303
in toluene, 328.16 K | 0.0402
in toluene, 333.25 K | 0.0556
